# How the values were obtained:
# human Slack = target: T1, human Slack (Homo sapiens, UniProt Q5JUK3); assay: Whole-cell patch-clamp recordings in HEK-Slack cells; type: cell-based
# T1 construct: host or cells: HEK293
# T1 sequence (Q5JUK3 1-1230): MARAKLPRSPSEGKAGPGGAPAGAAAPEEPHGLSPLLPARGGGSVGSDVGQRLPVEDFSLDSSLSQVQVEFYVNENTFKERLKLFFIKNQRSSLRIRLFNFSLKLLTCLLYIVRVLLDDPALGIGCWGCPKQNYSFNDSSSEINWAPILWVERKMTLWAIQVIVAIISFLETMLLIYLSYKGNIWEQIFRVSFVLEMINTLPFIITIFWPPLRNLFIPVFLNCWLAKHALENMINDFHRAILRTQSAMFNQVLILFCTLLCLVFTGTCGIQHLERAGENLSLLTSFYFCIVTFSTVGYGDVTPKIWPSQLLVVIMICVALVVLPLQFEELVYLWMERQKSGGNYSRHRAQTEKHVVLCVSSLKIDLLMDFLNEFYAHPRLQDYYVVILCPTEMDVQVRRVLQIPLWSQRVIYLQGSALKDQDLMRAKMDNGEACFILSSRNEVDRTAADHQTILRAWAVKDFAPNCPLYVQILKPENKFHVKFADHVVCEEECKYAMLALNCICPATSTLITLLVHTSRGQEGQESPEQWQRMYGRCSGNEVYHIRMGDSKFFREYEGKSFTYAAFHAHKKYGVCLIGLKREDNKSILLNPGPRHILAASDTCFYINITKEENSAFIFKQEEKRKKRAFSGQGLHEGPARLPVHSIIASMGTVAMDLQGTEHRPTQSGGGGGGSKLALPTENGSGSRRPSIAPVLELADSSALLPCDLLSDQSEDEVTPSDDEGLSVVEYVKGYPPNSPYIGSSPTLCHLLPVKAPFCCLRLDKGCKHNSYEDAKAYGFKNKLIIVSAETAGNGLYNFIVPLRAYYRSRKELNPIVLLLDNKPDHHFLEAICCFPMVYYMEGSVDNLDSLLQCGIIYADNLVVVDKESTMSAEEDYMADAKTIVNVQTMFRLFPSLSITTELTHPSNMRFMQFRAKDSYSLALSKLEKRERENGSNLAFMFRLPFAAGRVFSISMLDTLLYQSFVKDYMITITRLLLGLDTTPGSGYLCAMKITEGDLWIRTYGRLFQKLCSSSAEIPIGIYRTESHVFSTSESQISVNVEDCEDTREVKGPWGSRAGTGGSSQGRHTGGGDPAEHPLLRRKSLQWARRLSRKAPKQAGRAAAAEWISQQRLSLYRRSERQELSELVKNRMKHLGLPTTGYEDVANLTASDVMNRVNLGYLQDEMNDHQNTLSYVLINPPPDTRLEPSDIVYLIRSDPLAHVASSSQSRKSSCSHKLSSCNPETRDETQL
# Protocol: Generally, in these experiments, HEK-Slack cells were plated onto poly-D-lysine-coated (100 μg/mL, Sigma Aldrich) coverslips 1 day before experiments and cultured in DMEM containing 10% FBS and 1% penicillin/streptomycin in 5% CO2 at 37° C. Whole-cell voltage clamp recordings were acquired using an EPC 9 amplifier combined with Patchmaster software (HEKA Electronics, Lambrecht/Pfalz, Germany). Currents were sampled at 20 kHz and filtered at 5 KHz. Data analysis was performed using the Fitmaster software (HEKA Electronics). Membrane potential was held at −70 mV and outward K^+ current (IK) was evoked by depolarizing steps (500 ms duration) ranging from −120 to +120 mV in increments of 20 mV. The pipette solution contained 140 mM KCl, 2 mM MgCl2, 5 mM EGTA, 10 mM HEPES, and was adjusted to pH 7.4 with KOH. The extracellular solution contained 140 mM NaCl, 5 mM KCl, 2 mM CaCl2), 2 mM MgCl2, 10 mM HEPES, and was adjusted to pH 7.4 with NaOH.
# At a holding potential of −70 mV a series of 500 ms-long test pulses ranging from −120 to +120 mV in intervals of 20 mV were applied.
# Fold increase values in patch-clamp experiments were determined by calculating […].
# [1] = Microsomal stability assay in liver microsomes; type: in vitro ADME, Sprague-Dawley rats; conditions: 10 μM, rat liver microsomes
# Protocol: For Compound 10, the metabolic stability in liver microsomes as shown in Table 4 was determined by the following assay. The test compound was dissolved in DMSO (1 mM). The solubilized test compound (5 μL, final concentration 10 μM) was preincubated at 37° C. in 432 μL of phosphate buffer (0.1 M, pH=7.4) together with 50 μL of NADPH regenerating system (30 mM glucose-6-phosphate, 4 U/mL glucose 6-phosphate dehydrogenase, 10 mM NADP, 30 mM MgCl2). After 5 min, the reaction was started by the addition of 13 μL of microsome mix from the liver of Sprague-Dawley rats (Invitrogen; 20 mg protein/mL in 0.1 M phosphate buffer) in a shaking water bath at 37° C. The reaction was stopped by adding 500 μL of ice-cold methanol at 0, 15, 30, and 60 min. The samples were centrifuged at 5000×g for 5 min at 4° C., and the test compound was quantified from the supernatants by HPLC: the composition of the mobile phase was adapted to the test compound in a range of MeOH 40-90% and water (0.1% formic acid) 10-60%. Flow rate: 1 mL/min; stationary phase: Purospher STAR, RP18, 5 μm, 125×4; precolumn: Purospher STAR, RP18, 5 μm, 4×4; detection wavelength: 254 and 280 nm; injection volume: 50 μL. Control samples were performed to check the test compound's stability in the reaction mixture. First control was without NADPH, which is needed for the enzymatic activity of the microsomes, second control was with inactivated microsomes (incubated for 20 min at 90° C.), and third control was without the test compound (to determine the baseline). The amounts of the test compound were quantified by an external calibration curve. Data are expressed as the mean±SEM remaining compound from three independent experiments. In vitro half-life was calculated by a logarithmic-linear transformation of the remaining amounts of nonmetabolized test compound versus time.
# muscarine M1 receptor = muscarine M1 receptor (Homo sapiens, UniProt P11229); assay: SafetyScreen44 binding; conditions: substantial = higher than 50%
# Sequence of muscarine M1 receptor (P11229 whole entry): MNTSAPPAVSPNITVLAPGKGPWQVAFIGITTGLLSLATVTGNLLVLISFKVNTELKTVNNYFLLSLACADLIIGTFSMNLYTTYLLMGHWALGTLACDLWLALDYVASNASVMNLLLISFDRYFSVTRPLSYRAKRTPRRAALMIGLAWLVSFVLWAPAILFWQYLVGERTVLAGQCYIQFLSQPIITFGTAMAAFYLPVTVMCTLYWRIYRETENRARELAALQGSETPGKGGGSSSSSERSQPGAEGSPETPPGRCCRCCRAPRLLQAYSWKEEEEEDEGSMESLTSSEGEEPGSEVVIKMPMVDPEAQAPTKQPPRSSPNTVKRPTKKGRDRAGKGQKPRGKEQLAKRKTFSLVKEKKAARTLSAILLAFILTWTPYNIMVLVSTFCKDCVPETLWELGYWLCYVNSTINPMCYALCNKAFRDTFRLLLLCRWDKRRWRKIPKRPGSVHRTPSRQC
structure (smiles),measurement,setting,value
"CN1CCCN(C2=Nc3ccccc3Oc3ccc(C(F)(F)F)cc32)CC1 [Compound 3, 11-(4-Methyl-1,4-diazepan-1-yl)-2-(trifluoromethyl)dibenzo[b,f][1,4]oxazepine]",IK amplitude in comparison to vehicle,human Slack; 50 μM,all except Compound 3
"O=c1nc(CN2CCN(C3=Nc4ccccc4Oc4ccc(Cl)cc43)CC2)[nH][nH]1 [Compound 10, 5-((4-(2-Chlorodibenzo[b,f][1,4]oxazepin-11-yl)piperazin-1-yl)methyl)-1,2-dihydro-3H-1,2,4-triazol-3-one]",Metabolic stability (remaining compound),[1]; 15 min,55%
same,Metabolic stability (remaining compound),[1]; 30 min,35%
same,Metabolic stability (remaining compound),[1]; 60 min,16%
same,fold increase compared to baseline,human Slack; 25 μM,7.74±1.525 fold
same,fold increase compared to baseline,human Slack; 50 μM,12.54±1.395 fold
"CN1CCN(C2=Nc3ccccc3Oc3ccc(Cl)cc32)CC1 [Loxapine, 2-chloro-11-(4-methylpiperazin-1-yl)dibenzo[b,f][1,4]oxazepine, reference compound]",inhibition at 10 µM,muscarine M1 receptor,> 50%

# — US20260258003A1, “SLACK-ACTIVATING COMPOUNDS AND THEIR MEDICAL USE” (Johann Wolfgang Goethe-Universität Frankfurt am Main, priority 2023, published 2026)
